Experimental findings from patent publication US8772237B2, “Compositions and methods for counteracting effects of reactive oxygen species and free radicals” (Ischemix, Inc., priority 1999, dated 2014) are described below.

The assay concerns middle cerebral artery (MCA) permanent occlusion stroke model. Kind of assay: Permanent MCA 24-hour occlusion stroke model. Type of assay: in vivo, Sprague-Dawley rats. The method, then:
The in vivo neuroprotective effects of CMX-9236 were investigated in both temporary and permanent occlusion stroke models in Sprague-Dawley rats using an intraluminal suture of the middle cerebral artery (MCA) occlusion method (Zea Longa et al., Stroke, 20: 84 (1989)). Briefly, a 4-0 silicone-coated suture was inserted through the right common carotid artery to block the MCA orifice. In the temporary model, CMX-9236 (6.2 mg/kg/hr) or vehicle was administered via the femoral vein at 30 minutes after the start of a 2-hour occlusion for a 4-hour continuous infusion; the rats were then reperfused by withdrawing the suture at […] after the MCA occlusion. All experiments were performed in a blinded and randomized manner, and rectal temperature was maintained at 37° C. The animals were sacrificed, and their brains were removed, sectioned into six 2-mm-thick coronal slices and stained with 2,3,5-triphenyltetrazolium chloride solution (Bederson et al., Stroke, 17:1304 (1986)) to visualize the extent of brain damage for the calculation of the corrected hemispheric infarct volumes (Nagasawa and Kogure, Stroke, 20:1037 (1989); Li et al., J. Cereb. Blood Flow Metab., 17:1132 (1997)). […] This represents a significant reduction of infarct size (35±5%, p=0.01, student t-test) for the CMX-9236-treated group in the temporary occlusion model. There was also a 58+11% improvement in the neurological scoring (Minematsu et al., Neurology, 42:235 (1992)) for the peptide-treated group versus controls at the end of 24 hours.
In the permanent occlusion stroke model, the blood flow to the MCA territory was blocked for the total 24-hour period. A continuous i.v. infusion (0.5 ml/hr) of the CMX-9236 peptide (2.04 mg/kg/hr) or vehicle was initiated at 30 minutes after occlusion for 6 hours, followed by a bolus i.v. infusion of CMX-9236 (4.0 mg/kg in 0.5 ml delivered over 10 minutes) or vehicle at 12 hours after occlusion. The corrected infarct volumes were 127.5±18 mm^3 versus 216±18 mm^3 for drug-treated animals and controls, respectively. This represents a significant decrease (41±5%, p=0.003, student t-test) in infarct size for the drug-treated group as compared to the vehicle-treated control group (n=10 per group) in the permanent model, indicating a substantial rescue of brain tissue. These findings indicate that CMX-9236 has neuroprotective properties post-trauma in vivo, reducing the brain damage generated by cerebral ischemia.

Ends that are not written are not given here.

As to “KKDGDGDFAIDAPE [CMX-9236, uncapped peptide]”, the corrected infarct volume (2.04 mg/kg/hr i.v. for 6 hours from 30 min, plus 4.0 mg/kg bolus at 12 hours, n=10) is listed as 127.5±18 mm^3. For the setting “2.04 mg/kg/hr infusion plus 4.0 mg/kg bolus, p=0.003”, the “decrease in infarct size vs vehicle” value was found to be 41±5%.
